Drawing on patent US20250231185A1, “Coronavirus T Cell Epitopes, Megapools and Uses Thereof” (La Jolla Institute for Immunology, priority 2021, published 2025), this text covers Dominant and Restriction for 52 substances.

In test [1] the test system is CD8+ T cells. In words: Meta-analysis of published SARS-CoV-2 CD8 T cell epitope data curated in the IEDB (25 studies). Type of test: cell-based, human.
The subject of test [2] is CD8+ T cells. The conditions noted are these: T cell type (CD4 or CD8) recognizing the SARS-CoV-2 epitope; cited from earlier work.
Setting [3] is: SARS-CoV-2-derived CD8 epitopes, dominant = recognized by 3 or more donors/different studies.
Setting [4] is: CD8S (D) Megapool, antigen S, dominant = recognized in 3 or more donors/studies.

Turning to 901 (NTCDGTTFTY) [compound 901], the Dominant result in test [1] (setting [3]) was “Yes (more dominant epitopes are defined by being recognized by 3 or more donors/different studies)”. Also, in test [2], the Restriction entry is “CD8”.

As for 903 (FTYASALWEI) [compound 903], the Dominant result in test [1] (setting [3]) is listed as “Yes (more dominant epitopes are defined by being recognized by 3 or more donors/different studies)”. For the same substance, the Restriction entry in test [2] is reported as “CD8”.

On to 905 (ALWEIQQV) [compound 905], for which the Dominant result in test [1] (setting [3]) is “Yes (more dominant epitopes are defined by being recognized by 3 or more donors/different studies)”. In test [2], the Restriction result is listed as “CD8”.

Turning to 909 (ALRANSAVK) [compound 909], the Dominant entry in test [1] (setting [3]) is listed as “Yes (more dominant epitopes are defined by being recognized by 3 or more donors/different studies)”. In addition, the Restriction entry in test [2] is listed as “CD8”.

For the substance 910 (CTDDNALAYY) [compound 910], the Dominant result in test [1] (setting [3]) is listed as “Yes (more dominant epitopes are defined by being recognized by 3 or more donors/different studies)”. For the same substance, the Restriction entry in test [2] was “CD8”.

As for 913 (YTELEPPCRF) [compound 913], in test [1] (setting [3]), the Dominant entry is given as “Yes (more dominant epitopes are defined by being recognized by 3 or more donors/different studies)”. For the same substance, the Restriction entry in test [2] is “CD8”.

As for 914 (VTDTPKGPK) [compound 914], the Dominant result in test [1] (setting [3]) is listed as “Yes (more dominant epitopes are defined by being recognized by 3 or more donors/different studies)”. The Restriction result in test [2] is reported as “CD8”.

As for 920 (TVLSFCAFAV) [compound 920], the Dominant entry in test [1] (setting [3]) is “Yes (more dominant epitopes are defined by being recognized by 3 or more donors/different studies)”. The Restriction entry in test [2] is on record as “CD8”.

922 (DLKGKYVQI) [compound 922]: the Dominant entry in test [1] (setting [3]) is given as “Yes (more dominant epitopes are defined by being recognized by 3 or more donors/different studies)”. The Restriction entry in test [2] is on record as “CD8”.

On to 930 (YTMADLVYAL) [compound 930], for which the Dominant result in test [1] (setting [3]) is on record as “Yes (more dominant epitopes are defined by being recognized by 3 or more donors/different studies)”. The Restriction entry in test [2] was “CD8”.

Turning to 931 (TMADLVYAL) [compound 931], the Dominant entry in test [1] (setting [3]) was “Yes (more dominant epitopes are defined by being recognized by 3 or more donors/different studies)”. In test [2], the Restriction entry was “CD8”.

With 939 (LLMPILTLT) [compound 939], the Dominant entry in test [1] (setting [3]) is on record as “Yes (more dominant epitopes are defined by being recognized by 3 or more donors/different studies)”. In addition, in test [2], the Restriction result is recorded as “CD8”.

Regarding 943 (KLFDRYFKY) [compound 943], in test [1] (setting [3]), the Dominant result is reported as “Yes (more dominant epitopes are defined by being recognized by 3 or more donors/different studies)”. In addition, the Restriction entry in test [2] was “CD8”.

As to 951 (FVDGVPFVV) [compound 951], the Dominant result in test [1] (setting [3]) is on record as “Yes (more dominant epitopes are defined by being recognized by 3 or more donors/different studies)”. Moreover, in test [2], the Restriction entry was “CD8”.

961 (ISDYDYYRY) [compound 961]: in test [1] (setting [3]), the Dominant entry was “Yes (more dominant epitopes are defined by being recognized by 3 or more donors/different studies)”. In addition, in test [2], the Restriction result was “CD8”.

Consider 964 (RQLLFVVEV) [compound 964], for which the Dominant result in test [1] (setting [3]) is on record as “Yes (more dominant epitopes are defined by being recognized by 3 or more donors/different studies)”. For the same substance, the Restriction result in test [2] is listed as “CD8”.

On to 966 (VVDKYFDCY) [compound 966], for which, in test [1] (setting [3]), the Dominant result is “Yes (more dominant epitopes are defined by being recognized by 3 or more donors/different studies)”. Further, the Restriction entry in test [2] is recorded as “CD8”.

Turning to 970 (RLYYDSMSY) [compound 970], in test [1] (setting [3]), the Dominant entry is reported as “Yes (more dominant epitopes are defined by being recognized by 3 or more donors/different studies)”. Moreover, the Restriction result in test [2] was “CD8”.

Turning to 989 (MVMCGGSLYV) [compound 989], the Dominant result in test [1] (setting [3]) is “Yes (more dominant epitopes are defined by being recognized by 3 or more donors/different studies)”. Also, the Restriction entry in test [2] was “CD8”.

On to 992 (DTDFVNEFY) [compound 992], for which, in test [1] (setting [3]), the Dominant entry is listed as “Yes (more dominant epitopes are defined by being recognized by 3 or more donors/different studies)”. Also, in test [2], the Restriction result is listed as “CD8”.

Take 995 (FYAYLRKHF) [compound 995]: in test [1] (setting [3]), the Dominant result is reported as “Yes (more dominant epitopes are defined by being recognized by 3 or more donors/different studies)”. The Restriction result in test [2] is reported as “CD8”.

Regarding 1008 (RILGAGCFV) [compound 1008], in test [1] (setting [3]), the Dominant result is given as “Yes (more dominant epitopes are defined by being recognized by 3 or more donors/different studies)”. Further, the Restriction result in test [2] was “CD8”.

In the case of 1012 (LYLQYIRKL) [compound 1012], the Dominant result in test [1] (setting [3]) was “Yes (more dominant epitopes are defined by being recognized by 3 or more donors/different studies)”. Further, the Restriction entry in test [2] was “CD8”.

On to 1019 (VLQAVGACV) [compound 1019], for which, in test [1] (setting [3]), the Dominant result is given as “Yes (more dominant epitopes are defined by being recognized by 3 or more donors/different studies)”. The Restriction entry in test [2] is “CD8”.

Regarding 1020 (LVLSVNPYV) [compound 1020], in test [1] (setting [3]), the Dominant entry is “Yes (more dominant epitopes are defined by being recognized by 3 or more donors/different studies)”. Also, the Restriction result in test [2] is reported as “CD8”.

On to 1025 (VVYRGTTTYK) [compound 1025], for which the Dominant result in test [1] (setting [3]) was “Yes (more dominant epitopes are defined by being recognized by 3 or more donors/different studies)”. Besides, the Restriction result in test [2] is listed as “CD8”.

In the case of 1026 (VVYRGTTTY) [compound 1026], the Dominant result in test [1] (setting [3]) was “Yes (more dominant epitopes are defined by being recognized by 3 or more donors/different studies)”. The Restriction entry in test [2] is listed as “CD8”.

As to 1027 (VYRGTTTYKL) [compound 1027], the Dominant result in test [1] (setting [3]) is given as “Yes (more dominant epitopes are defined by being recognized by 3 or more donors/different studies)”. Further, the Restriction entry in test [2] is listed as “CD8”.

In the case of 1029 (KLNVGDYFV) [compound 1029], in test [1] (setting [3]), the Dominant result is reported as “Yes (more dominant epitopes are defined by being recognized by 3 or more donors/different studies)”. Also, the Restriction entry in test [2] is reported as “CD8”.

With 1495 (SVASQSIIAY) [compound 1495], the Dominant entry in test [1] (setting [4]) was “Yes (more dominant epitopes are defined by being recognized by 3 or more donors/different studies)”.

1496 (VASQSIIAY) [compound 1496]: the Dominant entry in test [1] (setting [4]) was “Yes (more dominant epitopes are defined by being recognized by 3 or more donors/different studies)”.

1497 (SIIAYTMSL) [compound 1497]: the Dominant entry in test [1] (setting [4]) was “Yes (more dominant epitopes are defined by being recognized by 3 or more donors/different studies)”.

Turning to 1498 (FTISVTTEIL) [compound 1498], the Dominant result in test [1] (setting [4]) is “Yes (more dominant epitopes are defined by being recognized by 3 or more donors/different studies)”.

For the substance 1499 (TEILPVSMTK) [compound 1499], the Dominant result in test [1] (setting [4]) is given as “Yes (more dominant epitopes are defined by being recognized by 3 or more donors/different studies)”.

For the substance 1500 (TECSNLLLQY) [compound 1500], in test [1] (setting [4]), the Dominant result is “Yes (more dominant epitopes are defined by being recognized by 3 or more donors/different studies)”.

As to 1501 (LLQYGSFCT) [compound 1501], the Dominant entry in test [1] (setting [4]) was “Yes (more dominant epitopes are defined by being recognized by 3 or more donors/different studies)”.

On to 1502 (LLFNKVTLA) [compound 1502], for which, in test [1] (setting [4]), the Dominant entry was “Yes (more dominant epitopes are defined by being recognized by 3 or more donors/different studies)”.

As for 1503 (LTDEMIAQY) [compound 1503], in test [1] (setting [4]), the Dominant entry is “Yes (more dominant epitopes are defined by being recognized by 3 or more donors/different studies)”.

Regarding 1504 (MIAQYTSAL) [compound 1504], the Dominant result in test [1] (setting [4]) is recorded as “Yes (more dominant epitopes are defined by being recognized by 3 or more donors/different studies)”.

On to 1506 (TQNVLYENQK) [compound 1506], for which, in test [1] (setting [4]), the Dominant entry was “Yes (more dominant epitopes are defined by being recognized by 3 or more donors/different studies)”.

1507 (NQKLIANQF) [compound 1507]: the Dominant entry in test [1] (setting [4]) is “Yes (more dominant epitopes are defined by being recognized by 3 or more donors/different studies)”.

1508 (VLNDILSRL) [compound 1508]: the Dominant result in test [1] (setting [4]) is recorded as “Yes (more dominant epitopes are defined by being recognized by 3 or more donors/different studies)”.

Take 1511 (YHLMSFPQSA) [compound 1511]: the Dominant entry in test [1] (setting [4]) is “Yes (more dominant epitopes are defined by being recognized by 3 or more donors/different studies)”.

On to 1512 (HLMSFPQSA) [compound 1512], for which the Dominant entry in test [1] (setting [4]) is “Yes (more dominant epitopes are defined by being recognized by 3 or more donors/different studies)”.

Consider 1513 (APHGVVFLHV) [compound 1513], for which the Dominant entry in test [1] (setting [4]) was “Yes (more dominant epitopes are defined by being recognized by 3 or more donors/different studies)”.

Turning to 1514 (VVFLHVTYV) [compound 1514], in test [1] (setting [4]), the Dominant entry was “Yes (more dominant epitopes are defined by being recognized by 3 or more donors/different studies)”.

Consider 1515 (GTHWFVTQR) [compound 1515], for which the Dominant entry in test [1] (setting [4]) is given as “Yes (more dominant epitopes are defined by being recognized by 3 or more donors/different studies)”.

With 1516 (RLNEVAKNL) [compound 1516], in test [1] (setting [4]), the Dominant entry is reported as “Yes (more dominant epitopes are defined by being recognized by 3 or more donors/different studies)”.

As to 1517 (NLNESLIDL) [compound 1517], the Dominant result in test [1] (setting [4]) is reported as “Yes (more dominant epitopes are defined by being recognized by 3 or more donors/different studies)”.

In the case of 1518 (QYIKWPWYI) [compound 1518], in test [1] (setting [4]), the Dominant entry is on record as “Yes (more dominant epitopes are defined by being recognized by 3 or more donors/different studies)”.

For 1519 (KWPWYIWLGF) [compound 1519], the Dominant result in test [1] (setting [4]) is reported as “Yes (more dominant epitopes are defined by being recognized by 3 or more donors/different studies)”.

Take 1521 (SEPVLKGVKL) [compound 1521]: the Dominant result in test [1] (setting [4]) is given as “Yes (more dominant epitopes are defined by being recognized by 3 or more donors/different studies)”.
